Measurements: patent publication US10638750B2, “Compositions containing a hollow glucan particle or a cell wall particle encapsulating a terpene component, methods of making and using them” (Eden Research PLC, priority 2004, dated 2020)
Where two headings read alike, the source gives them in different places.

Tests used:
[1] = system: Saccharomyces cerevisiae; assay: Saccharomyces cerevisiae MIC assays comparing free terpene emulsions with yeast-encapsulated terpenes; type: cell-based; details: free terpene emulsion; for Cidal MIC Free terpene emulsions: re-incubation in fresh medium
Description: One column was designated as a cell-only control and no terpene was added to these wells. Serial 2-fold dilutions were performed by transferring 100 μL from one row to the next a total of 7 times. […] Microtitre plates were incubated statically overnight at 30° C. […] Growth inhibition was visually confirmed by microscopy. For the free terpene emulsions, once the MIC had been determined for each formulation, the microtitre plates were centrifuged and the spent medium was removed from the growth-inhibited wells. The cells were resuspended in fresh medium (100 μL) and the plates were re-incubated overnight at 30° C. Assessment of growth inhibition was performed as before.

[2] = Citral solution and stable suspension limits; type: physicochemical
[3] = system: E. coli; details: cited from earlier work
[4] = system: S. aureus; assay: MIC of terpene emulsions and fresh or freeze-dried Baker's YP and SAF Mannan encapsulated terpenes; type: cell-based; details: for MIC: Staphylococcus aureus
Description: The results of a protocol performed to compare the MIC of fresh versus freeze dried hollow glucan particle encapsulated terpene formulations are shown below in Table 13. A simple terpene emulsion was also tested and the results are shown for comparison.

[5] = Terpene stability by formation of a yellow colored oxidation product of citral; type: physicochemical
[6] = system: H. pylori; details: in vitro; cited from earlier work
[7] = encapsulated in Baker's YP, freeze dried, read-out: MIC μg/ml terpene, Bakers Freeze Dried
[8] = encapsulated in Baker's YP, fresh, read-out: MIC μg/ml terpene, Bakers Fresh
[9] = encapsulated in SAF Mannan, freeze dried, read-out: MIC μg/ml terpene, SAF Mannan Freeze Dried
[10] = encapsulated in SAF Mannan, fresh, read-out: MIC μg/ml terpene, SAF Mannan Fresh
[11] = terpene emulsion, not encapsulated, read-out: MIC μg/ml terpene, Emulsion

Compound	MIC Free terpene emulsions [1] [ppm]	Cidal MIC Free terpene emulsions [1] [ppm]	MIC [4, 7] [µg/mL]	MIC [4, 8] [µg/mL]	MIC [4, 9] [µg/mL]	MIC [4, 10] [µg/mL]	MIC [4, 11] [µg/mL]	further results
CC(C)=CCCC(C)=CC=O (mixture of isomers) [C (4)]	125	250	–	–	–	–	–	–
CC(C)=CCCC(C)=CC=O [Citral, 3,7-dimethyl-2,6-octadien-1-al]	–	–	0.05	0.01	> 0.03	0.01	0.94	concentration up to which a solution can be made [2]: about 500 ppm; concentration up to which a stable suspension can be formed [2]: about 2500 ppm; concentration in growth media that reduced the concentration of E. coli [3]: more than 0.01%; concentration with bactericidal effect [3]: 0.08%; yellow color (citral oxidation product) over time ([5]; aqueous emulsion): turned a progressively increasing yellow color over time; yellow color (citral oxidation product) over time ([5]; encapsulated in Bakers YP): turned a progressively increasing yellow color over time; citral stability (yellow color over time) ([5]; encapsulated in SAF Mannan): increased citral stability; citral stability (absence of yellow colour) ([5]; loaded in SAF Mannan, after 24 hours at 37° C.): remains stable
C=CCc1ccc(O)c(OC)c1 [E (2)]	125	250	–	–	–	–	–	–
C=CCc1ccc(O)c(OC)c1 [Eugenol, eugenol]	–	–	0.05	0.03	0.05	0.01	0.12	–
CC(C)=CCC/C(C)=C/CO [G (1)]	250	250	–	–	–	–	–	–
CC(C)=CCC/C(C)=C/CO [Geraniol, geraniol]	–	–	0.06	0.03	> 0.03	0.02	0.47	concentration that inhibited the growth of H. pylori [6]: 2 mg/L
C=C(C)[C@@H]1CC=C(C)C(=O)C1 [L (5)]	250	500	–	–	–	–	–	–
Cc1ccc(C(C)C)c(O)c1 [T (3)]	125	250	–	–	–	–	–	–
L-carvone	–	–	–	–	–	–	–	MIC μg/ml terpene, Bakers Freeze Dried ([4]; encapsulated in Baker's YP, freeze dried): >0.04 µg/mL; MIC μg/ml terpene, Bakers Fresh ([4]; encapsulated in Baker's YP, fresh): 0.1 µg/mL; MIC μg/ml terpene, SAF Mannan Freeze Dried ([4]; encapsulated in SAF Mannan, freeze dried): >0.02 µg/mL; MIC μg/ml terpene, SAF Mannan Fresh ([4]; encapsulated in SAF Mannan, fresh): 0.01 µg/mL; MIC μg/ml terpene, Emulsion ([4]; terpene emulsion, not encapsulated): 3.75 µg/mL
